# Assay results from patent US20210284742A1, “METHODS OF TREATING OR PREVENTING MUCORMYCOSIS” (University of Maryland, Baltimore, priority 2018, published 2021).
# Columns and labels:
# [1] = test system: A549 cells infected with R. delemar; test: R. delemar-induced A549 cell damage (Pierce LDH assay); assay type: cell-based, human
# Experimental: Measurement of R. delemar-induced host cell damage. R. delemar-induced A549 cell damage was quantified using the Pierce LDH Assay with slight modifications to the manufacturer's protocol. Briefly, A549 cells were grown in 96-well tissue culture plates for 18-24 hours. […] For controls, host cells will be incubated with DMSO (the solvent used to reconstitute the inhibitor) or 25 μg/ml of mouse IgG antibody in parallel. After 24 hours of incubation at 37° C., 50 μl of the cell culture supernatant was collected from uninfected, infected, and fungi-only control wells and transferred to a 96 well plate to assay for LDH activity. Lysis buffer was added to all infected wells and incubated for 45 min at 37° C. After lysis, 50 μl of cell culture supernatant was transferred to a 96 well plate and used for the LDH Assay Kit per protocol. LDH release was calculated as follows: % Cytotoxicity=[Experimental release−Fungal Cells Spontaneous Control−Host Cells Spontaneous Control]/[Host Cell Maximum Control−Fungal Cells Maximum Control−Host Cells Spontaneous Control]×100. LDH is a cytosolic enzyme but will be released into the cell culture medium upon cell membrane damage. The amount of extracellular LDH is proportional to the amount of cell damage.
# R. delemar-induced A549 cell damage was quantified using the Pierce LDH assay, with slight modifications to the manufacturer's protocol. Briefly, A549 cells were grown in 96-well tissue culture plates for 18 to 24 h. Cells were then pretreated for 1 h with inhibitor and infected with 1×10^6-2×10^6 germlings suspended in 150 μl F-12K plus 10% FBS. For controls, host cells were incubated with the appropriate amount of diluent used to reconstitute the in parallel. After 24 h of incubation at 37° C., 50 μl of the cell culture supernatant was collected from uninfected, infected, and fungus-only control wells and transferred to a 96-well plate to assay for LDH activity. Lysis buffer was added to all infected wells, and the mixture was incubated for 45 min at 37° C. After lysis, 50 μl of cell culture supernatant was transferred to a 96-well plate and used for the LDH assay kit per the protocol. LDH release was calculated as follows: % cytotoxicity=[(experimental release−fungal cell spontaneous control−host cell spontaneous control)/(host cell maximum control−fungal cell maximum control−host cell spontaneous control)]×100. LDH is a cytosolic enzyme but will be released into the cell culture medium upon cell membrane damage. The amount of extracellular LDH is proportional to the amount of cell damage.
# R. delemar = test: Tissue fungal burden of lungs and brains by qPCR in neutropenic mice; assay type: in vivo; conditions: 10 mg/kg starting 4 h post infection through Day +3, organs collected Day +4, qPCR
# Experimental: Murine models of Mucormycosis. Male ICR mice (20-25 g from Envigo) were immunosuppresed by cyclophosphamide (200 mg/kg administered intraperotenually [i.p]) and cortisone acetate (500 mg/kg, adminstered subcutaneously) given on days −2, +3, and +9 relative to infection. […] To control for bacterial infection, immunosuppressed mice received 50 mg/L Baytrial (enrofloxacin: Bayer, Leverkusen, Germany) ad libitum on Day −3 thorough Day 0, after which Baytril was replaced with daily ceftazidime (5 mg/mouse) treatment adminstered subcutaneously through day+13 days post infection. […] On Day +4, mice were sacrificed and lungs and brains, representing primary and secondary target organs (Luo G, Gebremariam T, Lee H, French S W, Wiederhold N P, Patterson T F, Filler S G, Ibrahim A S. 2013. Efficacy of liposomal amphotericin B and posaconazole in intratracheal models of murine mucormycosis. Antimicrobial agents and chemotherapy 57:3340-7), were collected and processed for tissue fungal burden by qPCR (Ibrahim A S, Bowman J C, Avanessian V, Brown K, Spellberg B, Edwards J E, Jr., Douglas C M. 2005. Caspofungin inhibits Rhizopus oryzae 1,3-beta-D-glucan synthase, lowers burden in brain measured by quantitative PCR, and improves survival at a low but not a high dose during murine disseminated zygomycosis. […]
# Statistical Analyses. […] Data were expressed as median±interquartile range. […]
# [2] = test system: A549 cells infected with C. bertholletiae; test: C. bertholletiae-induced damage of A549 cells (LDH assay); assay type: cell-based, human; conditions: 25 μM Mifepristone overnight and/or 25 μM Gefitinib 1 h, 24 h infection (FIG. 14)
smiles,measurement,setting,value
COc1cc2ncnc(Nc3ccc(F)c(Cl)c3)c2cc1OCCCN1CCOCC1 [Gefitinib],R. delemar-induced damage of A549 cells (LDH assay),"[1]; A549 cells pretreated 1 h with 25 μM Gefitinib or 25 μg/ml Cetuximab, 24 h infection, vs vehicle or IgG1 control antibody",significantly reduced
same,R. delemar-induced damage of alveolar epithelial cells (LDH assay),"[1]; Example 3, Mifepristone 25 / Gefitinib 25, 24 h infection, vs vehicle (FIG. 12)",significantly decreased
same,host cell damage after pre-treatment of R. delemar spore preparations,[1]; spore preparations pre-treated with drug prior to the infection,did not reduce
same,reduction in fungal burden in organs (lungs and brains) compared to placebo-treated mice,R. delemar,~1 log
same,C. bertholletiae-induced damage,[2],significantly decreased
